Test results as given in patent US10815238B2, “Antimicrobial compounds and methods of making and using the same” (BIOVERSYS AG, priority 2013, dated 2020).

Each compound was assayed on Eschericia coli (E. coli) strain ATCC25922 (assay: Standard microdilution assay, MIC against E. coli ATCC25922). Conditions: Escherichia coli; E. coli strain ATCC25922, standard microdilution assay; cutoff 16 micrograms/mL; read-out: MIC E. Coli.
Type: cell-based
Procedure, shortened: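 MIC determined by broth microdilution following CLSI protocols, with reference strains run in parallel for quality control. Activity scored +/− at a cutoff of 16 micrograms/mL.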

`C[C@H](N)CCCc1cc(Cl)c(F)c(-c2cc3cn(-c4ccc([C@H](C)N[C@H](CCO)CCNC(=N)N)cc4)c(=O)nc3[nH]2)c1` [Compound 291] was tested. Which MIC did it give?
Its MIC is under 16 µg/mL.

For `C/C=C/C[C@H](CCN[C@@H](C)c1ccc(-n2cc3cc(-c4cc(CCC[C@H](C)N)cc(OC(F)(F)F)c4F)[nH]c3nc2=O)cc1)NC(=N)N` [Compound 292], which MIC is on record?
The MIC was under 16 µg/mL.

How did the MIC turn out when `C[C@H](N)CCCc1cc(Cl)c(F)c(-c2cc3cn(-c4ccc([C@H](C)NCC[C@H](Cn5ccnn5)NC(=N)N)cc4)c(=O)nc3[nH]2)c1` [Compound 293] was run?
Its MIC is under 16 µg/mL.

With `C[C@H](N)CCCc1cc(OC(F)(F)F)c(F)c(-c2cc3cn(-c4ccc([C@H](C)NCC[C@H](Cn5ccnn5)NC(=N)N)cc4)c(=O)nc3[nH]2)c1` [Compound 294] as the compound, how does the MIC read?
The MIC was under 16 µg/mL.

`CC(=O)OC[C@H](N)CCCc1cc(Cl)c(F)c(-c2cc3cn(-c4ccc([C@H](C)NCCCNC(=N)N)cc4)c(=O)nc3[nH]2)c1` [Compound 295] was tested. Which MIC did it give?
Its MIC is under 16 µg/mL.

With `C[C@H](NCCCNC(=N)N)c1ccc(-n2cc3cc(-c4cc(CCC[C@@H]5COC(=O)N5)cc(Cl)c4F)[nH]c3nc2=O)cc1` [Compound 296] as the compound, how does the MIC read?
The MIC was over 16 µg/mL.

`C[C@H](N)CCCc1cc(Cl)c(F)c(-c2cc3cn(-c4ccc([C@H](C)NCC[C@@H](CC#N)NC(=N)N)cc4)c(=O)nc3[nH]2)c1` [Compound 297] was tested. Which MIC did it give?
The MIC was under 16 µg/mL.

Which MIC does the source give for `C[C@H](N)CCCc1cc(-c2cn3cc(-c4ccc([C@H](C)NCCCNC(=N)N)cc4)c(=O)nc3[nH]2)cc(C(F)(F)F)c1` [Compound 298] here?
The MIC was under 16 µg/mL.

Which MIC does the source give for `CCOC(=O)N[C@@H](C)CCCc1cc(-c2cn3cc(-c4ccc([C@H](C)NCCCNC(=N)N)cc4)c(=O)nc3[nH]2)cc(C(F)(F)F)c1` [Compound 299] here?
Its MIC is under 16 µg/mL.

With `C[C@H](NCCCNC(=N)N)c1ccc(-n2cc3cc(-c4cc(CCC[C@@H](N)COC(=O)c5ccccc5)cc(Cl)c4F)[nH]c3nc2=O)cc1` [Compound 300] as the compound, how does the MIC read?
Its MIC is under 16 µg/mL.

With `C[C@H](N)CCCc1cc(Cl)c(F)c(-c2cc3cn(-c4ccc([C@H](C)NCC[C@H](Cn5cc(CN)nn5)NC(=N)N)cc4)c(=O)nc3[nH]2)c1` [Compound 301] as the compound, how does the MIC read?
Its MIC is under 16 µg/mL.

With `C[C@H](N)CCCc1cc(Cl)c(F)c(-c2cn3cc(-c4ccc([C@H](C)NCCCNC(=N)N)cc4)c(=O)nc3[nH]2)c1` [Compound 302] as the compound, how does the MIC read?
Its MIC is under 16 µg/mL.

How did the MIC turn out when `C[C@H](N)CCCc1cc(Cl)c(F)c(-c2cc3cn(-c4ccc([C@H](C)N[C@@H](CCO)CCNC(=N)N)cc4)c(=O)nc3[nH]2)c1` [Compound 303] was run?
The MIC was under 16 µg/mL.

For `C[C@H](N)CCCc1cc(Cl)c(F)c(-c2cc3cn(-c4ccc([C@H](C)NCC[C@H](CN)NC(=N)N)cc4)c(=O)nc3[nH]2)c1` [Compound 304], which MIC is on record?
Its MIC is under 16 µg/mL.

How did the MIC turn out when `C[C@H](N)CCCc1cc(OC(F)(F)F)c(F)c(-c2cc3cn(-c4ccc([C@H](C)NCC[C@H](CN)NC(=N)N)cc4)c(=O)nc3[nH]2)c1` [Compound 305] was run?
The MIC was under 16 µg/mL.

How did the MIC turn out when `C[C@H](NCCCNC(=N)N)c1ccc(-n2cc3cc(-c4cc(CCC[C@@H](N)COC(=O)NCc5ccccc5)cc(Cl)c4F)[nH]c3nc2=O)cc1` [Compound 306] was run?
Its MIC is under 16 µg/mL.

Which MIC does the source give for `C[C@H](NCCCNC(=N)N)c1ccc(-n2cc3cc(-c4cc(CCC[C@@H](N)COC(=O)Nc5ccccc5)cc(Cl)c4F)[nH]c3nc2=O)cc1` [Compound 307] here?
Its MIC is under 16 µg/mL.

For `C[C@H](NCCCNC(=N)N)c1ccc(-n2cc3cc(-c4cc(CCC[C@@H](N)COC(=O)CCC(=O)O)cc(Cl)c4F)[nH]c3nc2=O)cc1` [Compound 308], which MIC is on record?
The MIC was under 16 µg/mL.

`C[C@H](NCCCNC(=N)N)c1ccc(-n2cc3cc(-c4cc(CCC[C@H](C)NC(=N)N)cc(Cl)c4F)[nH]c3nc2=O)cc1` [Compound 309] was tested. Which MIC did it give?
Its MIC is under 16 µg/mL.

With `C[C@H](N)CC[C@@H](O)c1cc(Cl)c(F)c(-c2cc3cn(-c4ccc([C@H](C)NCCCNC(=N)N)cc4)c(=O)nc3[nH]2)c1` [Compound 310] as the compound, how does the MIC read?
The MIC was under 16 µg/mL.

Which MIC does the source give for `C[C@H](N)CCCc1cc(OC(F)(F)F)c(F)c(-c2cc3cn(-c4ccc(CNCC[C@H](CN)NC(=N)N)cc4)c(=O)nc3[nH]2)c1` [Compound 311] here?
The MIC was under 16 µg/mL.

`C[C@H](N)CCCc1cc(Cl)c(F)c(-c2cc3cn(-c4ccc([C@H](C)NCC[C@H](CCN)NC(=N)N)cc4)c(=O)nc3[nH]2)c1` [Compound 312] was tested. Which MIC did it give?
The MIC was under 16 µg/mL.
